Experiments:
Type in all cases: in vivo
birds-eye speedwell [1] = test: Test Example 4: weedkilling efficacy by foliar treatment; p: birds-eye speedwell; conditions: treatment dosage 315 g/ha
Summary of the method: (§1)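 Seeds are spot-sown into sterilized diluvial soil and covered with about 1.5 cm of soil. After 14 days' greenhouse growth at 25 to 30° C, plants are sprayed on stems and leaves with diluted emulsion at the stated g/ha rate, then scored at 3 weeks.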

beet [2] = test: Test Example 4: foliar treatment, effect on crop; f: beet; conditions: treatment dosage 315 g/ha
Summary of the method: as §1

oval-leafed pondweed [3] = test: Test Example 2: weedkilling efficacy, growth period weed treatment in the submerged state; C: oval-leafed pondweed; conditions: treatment dosage 252 g/ha
Summary of the method: (§2)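 First, alluvial soil in pots is flooded to 4 cm and mixed seed is sown. Next, plants grow in a greenhouse at 25 to 30° C until the 1-2 leaf stage. Then diluted emulsion is applied onto the water surface at the given g/ha rate, and injury is assessed after 3 weeks.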

Indian mallow [4] = test: Test Example 4: weedkilling efficacy by foliar treatment; K: Indian mallow; conditions: treatment dosage 315 g/ha
Summary of the method: as §1

chickweed [5] = test: Test Example 3: weedkilling efficacy through soil treatment; N: chickweed; conditions: treatment dosage 315 g/ha
Summary of the method: (§3)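 Crop and weed responses were judged three weeks after a uniform surface spray of the water-diluted emulsion at the given g/ha rate. Seeds sat beneath about 1.5 cm of sterilized diluvial soil, and boxes stood in a greenhouse at 25 to 30° C.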

wheat [6] = test: Test Example 4: foliar treatment, effect on crop; e: wheat; conditions: treatment dosage 315 g/ha
Summary of the method: as §1

chickweed [7] = test: Test Example 4: weedkilling efficacy by foliar treatment; N: chickweed; conditions: treatment dosage 315 g/ha
Summary of the method: as §1

catchweed = test: Test Example 4: weedkilling efficacy by foliar treatment; O: catchweed; conditions: treatment dosage 315 g/ha
Summary of the method: as §1

barnyard grass [8] = test: Test Example 1: weedkilling efficacy, preemergent weed treatment in the submerged state; A: barnyard grass; conditions: treatment dosage 252 g/ha
Summary of the method: (§4)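 Alluvial soil in Wagner pots flooded to 4 cm; barnyard grass, bulrush and oval-leafed pondweed seeds sown, then 2.5-leaf rice seedlings transplanted. Same day, emulsified compound diluted in water to set g/ha dosages and applied to water surface; greenhouse 25–30 °C, effect scored by criteria after 3 weeks.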

soybean [9] = test: Test Example 4: foliar treatment, effect on crop; d: soybean; conditions: treatment dosage 315 g/ha
Summary of the method: as §1

bulrush [10] = test: Test Example 2: weedkilling efficacy, growth period weed treatment in the submerged state; B: bulrush; conditions: treatment dosage 252 g/ha
Summary of the method: as §2

transplanted rice = test: Test Example 1: preemergent weed treatment in the submerged state, effect on crop; a: transplanted rice; conditions: treatment dosage 252 g/ha
Summary of the method: as §4

Italian ryegrass [11] = test: Test Example 4: weedkilling efficacy by foliar treatment; I: Italian ryegrass; conditions: treatment dosage 315 g/ha
Summary of the method: as §1

green foxtail [12] = test: Test Example 4: weedkilling efficacy by foliar treatment; E: green foxtail; conditions: treatment dosage 315 g/ha
Summary of the method: as §1

Italian ryegrass [13] = test: Test Example 3: weedkilling efficacy through soil treatment; I: Italian ryegrass; conditions: treatment dosage 315 g/ha
Summary of the method: as §3

barnyard grass [14] = test: Test Example 2: weedkilling efficacy, growth period weed treatment in the submerged state; A: barnyard grass; conditions: treatment dosage 252 g/ha
Summary of the method: as §2

redroot pigweed [15] = test: Test Example 4: weedkilling efficacy by foliar treatment; L: redroot pigweed; conditions: treatment dosage 315 g/ha
Summary of the method: as §1

directly sown rice [16] = test: Test Example 3: soil treatment, effect on crop; b: directly sown rice; conditions: treatment dosage 315 g/ha
Summary of the method: as §3

black-grass [17] = test: Test Example 4: weedkilling efficacy by foliar treatment; H: black-grass; conditions: treatment dosage 315 g/ha
Summary of the method: as §1

crabgrass [18] = test: Test Example 4: weedkilling efficacy by foliar treatment; D: crabgrass; conditions: treatment dosage 315 g/ha
Summary of the method: as §1

fig-leafed goosefoot [19] = test: Test Example 4: weedkilling efficacy by foliar treatment; M: fig-leafed goosefoot; conditions: treatment dosage 315 g/ha
Summary of the method: as §1

redroot pigweed [20] = test: Test Example 3: weedkilling efficacy through soil treatment; L: redroot pigweed; conditions: treatment dosage 315 g/ha
Summary of the method: as §3

oval-leafed pondweed [21] = test: Test Example 1: weedkilling efficacy, preemergent weed treatment in the submerged state; C: oval-leafed pondweed; conditions: treatment dosage 252 g/ha
Summary of the method: as §4

bulrush [22] = test: Test Example 1: weedkilling efficacy, preemergent weed treatment in the submerged state; B: bulrush; conditions: treatment dosage 252 g/ha
Summary of the method: as §4

beet [23] = test: Test Example 3: soil treatment, effect on crop; f: beet; conditions: treatment dosage 315 g/ha
Summary of the method: as §3

crabgrass [24] = test: Test Example 3: weedkilling efficacy through soil treatment; D: crabgrass; conditions: treatment dosage 315 g/ha
Summary of the method: as §3

green foxtail [25] = test: Test Example 3: weedkilling efficacy through soil treatment; E: green foxtail; conditions: treatment dosage 315 g/ha
Summary of the method: as §3

wheat [26] = test: Test Example 3: soil treatment, effect on crop; e: wheat; conditions: treatment dosage 315 g/ha
Summary of the method: as §3

directly sown rice [27] = test: Test Example 4: foliar treatment, effect on crop; b: directly sown rice; conditions: treatment dosage 315 g/ha
Summary of the method: as §1

fig-leafed goosefoot [28] = test: Test Example 3: weedkilling efficacy through soil treatment; M: fig-leafed goosefoot; conditions: treatment dosage 315 g/ha
Summary of the method: as §3

Indian mallow [29] = test: Test Example 3: weedkilling efficacy through soil treatment; K: Indian mallow; conditions: treatment dosage 315 g/ha
Summary of the method: as §3

corn [30] = test: Test Example 4: foliar treatment, effect on crop; c: corn; conditions: treatment dosage 315 g/ha
Summary of the method: as §1

soybean [31] = test: Test Example 3: soil treatment, effect on crop; d: soybean; conditions: treatment dosage 315 g/ha
Summary of the method: as §3

black-grass [32] = test: Test Example 3: weedkilling efficacy through soil treatment; H: black-grass; conditions: treatment dosage 315 g/ha
Summary of the method: as §3

corn [33] = test: Test Example 3: soil treatment, effect on crop; c: corn; conditions: treatment dosage 315 g/ha
Summary of the method: as §3

birds-eye speedwell [34] = test: Test Example 3: weedkilling efficacy through soil treatment; p: birds-eye speedwell; conditions: treatment dosage 315 g/ha
Summary of the method: as §3

CC1=C(c2ccccc2)C(=O)N(C(C)(C)C(=O)Nc2cccc(Cl)n2)CO1 [B-2-29]
P (birds-eye speedwell) weedkilling efficacy grade (birds-eye speedwell [1]): 4 (weed kill ratio 70% or more, less than 90%) | f (beet) effect on crop grade (beet [2]): 4 (weed kill ratio 70% or more, less than 90%) | C (oval-leafed pondweed) weedkilling efficacy grade (oval-leafed pondweed [3]): 5 (weed kill ratio 90% or more, (practically complete withering)) | K (Indian mallow) weedkilling efficacy grade (Indian mallow [4]): 5 (weed kill ratio 90% or more, (practically complete withering)) | N (chickweed) weedkilling efficacy grade (chickweed [5]): 5 (weed kill ratio 90% or more, (practically complete withering)) | e (wheat) effect on crop grade (wheat [6]): 5 (weed kill ratio 90% or more, (practically complete withering)) | N (chickweed) weedkilling efficacy grade (chickweed [7]): 5 (weed kill ratio 90% or more, (practically complete withering)) | O (catchweed) weedkilling efficacy grade (catchweed): 4 (weed kill ratio 70% or more, less than 90%) | A (barnyard grass) weedkilling efficacy grade (barnyard grass [8]): 5 (weed kill ratio 90% or more, (practically complete withering)) | d (soybean) effect on crop grade (soybean [9]): 5 (weed kill ratio 90% or more, (practically complete withering)) | B (bulrush) weedkilling efficacy grade (bulrush [10]): 5 (weed kill ratio 90% or more, (practically complete withering)) | a (transplanted rice) effect on crop grade (transplanted rice): 0 (weed kill ratio 5% or less (practically no effect)) | I (Italian ryegrass) weedkilling efficacy grade (Italian ryegrass [11]): 5 (weed kill ratio 90% or more, (practically complete withering)) | E (green foxtail) weedkilling efficacy grade (green foxtail [12]): 5 (weed kill ratio 90% or more, (practically complete withering)) | I (Italian ryegrass) weedkilling efficacy grade (Italian ryegrass [13]): 5 (weed kill ratio 90% or more, (practically complete withering)) | A (barnyard grass) weedkilling efficacy grade (barnyard grass [14]): 5 (weed kill ratio 90% or more, (practically complete withering)) | L (redroot pigweed) weedkilling efficacy grade (redroot pigweed [15]): 5 (weed kill ratio 90% or more, (practically complete withering)) | b (directly sown rice) effect on crop grade (directly sown rice [16]): 5 (weed kill ratio 90% or more, (practically complete withering)) | H (black-grass) weedkilling efficacy grade (black-grass [17]): 5 (weed kill ratio 90% or more, (practically complete withering)) | D (crabgrass) weedkilling efficacy grade (crabgrass [18]): 5 (weed kill ratio 90% or more, (practically complete withering)) | M (fig-leafed goosefoot) weedkilling efficacy grade (fig-leafed goosefoot [19]): 4 (weed kill ratio 70% or more, less than 90%) | L (redroot pigweed) weedkilling efficacy grade (redroot pigweed [20]): 4 (weed kill ratio 70% or more, less than 90%) | C (oval-leafed pondweed) weedkilling efficacy grade (oval-leafed pondweed [21]): 5 (weed kill ratio 90% or more, (practically complete withering)) | B (bulrush) weedkilling efficacy grade (bulrush [22]): 5 (weed kill ratio 90% or more, (practically complete withering)) | f (beet) effect on crop grade (beet [23]): 5 (weed kill ratio 90% or more, (practically complete withering)) | D (crabgrass) weedkilling efficacy grade (crabgrass [24]): 5 (weed kill ratio 90% or more, (practically complete withering)) | E (green foxtail) weedkilling efficacy grade (green foxtail [25]): 5 (weed kill ratio 90% or more, (practically complete withering)) | e (wheat) effect on crop grade (wheat [26]): 5 (weed kill ratio 90% or more, (practically complete withering)) | b (directly sown rice) effect on crop grade (directly sown rice [27]): 5 (weed kill ratio 90% or more, (practically complete withering)) | M (fig-leafed goosefoot) weedkilling efficacy grade (fig-leafed goosefoot [28]): 5 (weed kill ratio 90% or more, (practically complete withering)) | K (Indian mallow) weedkilling efficacy grade (Indian mallow [29]): 4 (weed kill ratio 70% or more, less than 90%) | c (corn) effect on crop grade (corn [30]): 4 (weed kill ratio 70% or more, less than 90%) | d (soybean) effect on crop grade (soybean [31]): 3 (weed kill ratio 40% or more, less than 70%) | H (black-grass) weedkilling efficacy grade (black-grass [32]): 5 (weed kill ratio 90% or more, (practically complete withering)) | c (corn) effect on crop grade (corn [33]): 0 (weed kill ratio 5% or less (practically no effect)) | P (birds-eye speedwell) weedkilling efficacy grade (birds-eye speedwell [34]): 5 (weed kill ratio 90% or more, (practically complete withering))

CC1=C(c2ccccc2)C(=O)N(C(C)(C)C(=O)Nc2cccc(Br)n2)CO1 [B-2-31]
P (birds-eye speedwell) weedkilling efficacy grade (birds-eye speedwell [1]): 4 (weed kill ratio 70% or more, less than 90%) | f (beet) effect on crop grade (beet [2]): 4 (weed kill ratio 70% or more, less than 90%) | C (oval-leafed pondweed) weedkilling efficacy grade (oval-leafed pondweed [3]): 0 (weed kill ratio 5% or less (practically no effect)) | K (Indian mallow) weedkilling efficacy grade (Indian mallow [4]): 5 (weed kill ratio 90% or more, (practically complete withering)) | N (chickweed) weedkilling efficacy grade (chickweed [5]): 5 (weed kill ratio 90% or more, (practically complete withering)) | e (wheat) effect on crop grade (wheat [6]): 5 (weed kill ratio 90% or more, (practically complete withering)) | N (chickweed) weedkilling efficacy grade (chickweed [7]): 5 (weed kill ratio 90% or more, (practically complete withering)) | O (catchweed) weedkilling efficacy grade (catchweed): 3 (weed kill ratio 40% or more, less than 70%) | A (barnyard grass) weedkilling efficacy grade (barnyard grass [8]): 5 (weed kill ratio 90% or more, (practically complete withering)) | d (soybean) effect on crop grade (soybean [9]): 5 (weed kill ratio 90% or more, (practically complete withering)) | B (bulrush) weedkilling efficacy grade (bulrush [10]): 5 (weed kill ratio 90% or more, (practically complete withering)) | a (transplanted rice) effect on crop grade (transplanted rice): 0 (weed kill ratio 5% or less (practically no effect)) | I (Italian ryegrass) weedkilling efficacy grade (Italian ryegrass [11]): 5 (weed kill ratio 90% or more, (practically complete withering)) | E (green foxtail) weedkilling efficacy grade (green foxtail [12]): 5 (weed kill ratio 90% or more, (practically complete withering)) | I (Italian ryegrass) weedkilling efficacy grade (Italian ryegrass [13]): 5 (weed kill ratio 90% or more, (practically complete withering)) | A (barnyard grass) weedkilling efficacy grade (barnyard grass [14]): 5 (weed kill ratio 90% or more, (practically complete withering)) | L (redroot pigweed) weedkilling efficacy grade (redroot pigweed [15]): 5 (weed kill ratio 90% or more, (practically complete withering)) | b (directly sown rice) effect on crop grade (directly sown rice [16]): 5 (weed kill ratio 90% or more, (practically complete withering)) | H (black-grass) weedkilling efficacy grade (black-grass [17]): 5 (weed kill ratio 90% or more, (practically complete withering)) | D (crabgrass) weedkilling efficacy grade (crabgrass [18]): 5 (weed kill ratio 90% or more, (practically complete withering)) | M (fig-leafed goosefoot) weedkilling efficacy grade (fig-leafed goosefoot [19]): 4 (weed kill ratio 70% or more, less than 90%) | L (redroot pigweed) weedkilling efficacy grade (redroot pigweed [20]): 5 (weed kill ratio 90% or more, (practically complete withering)) | C (oval-leafed pondweed) weedkilling efficacy grade (oval-leafed pondweed [21]): 5 (weed kill ratio 90% or more, (practically complete withering)) | B (bulrush) weedkilling efficacy grade (bulrush [22]): 5 (weed kill ratio 90% or more, (practically complete withering)) | f (beet) effect on crop grade (beet [23]): 5 (weed kill ratio 90% or more, (practically complete withering)) | D (crabgrass) weedkilling efficacy grade (crabgrass [24]): 5 (weed kill ratio 90% or more, (practically complete withering)) | E (green foxtail) weedkilling efficacy grade (green foxtail [25]): 5 (weed kill ratio 90% or more, (practically complete withering)) | e (wheat) effect on crop grade (wheat [26]): 5 (weed kill ratio 90% or more, (practically complete withering)) | b (directly sown rice) effect on crop grade (directly sown rice [27]): 5 (weed kill ratio 90% or more, (practically complete withering)) | M (fig-leafed goosefoot) weedkilling efficacy grade (fig-leafed goosefoot [28]): 4 (weed kill ratio 70% or more, less than 90%) | K (Indian mallow) weedkilling efficacy grade (Indian mallow [29]): 0 (weed kill ratio 5% or less (practically no effect)) | c (corn) effect on crop grade (corn [30]): 4 (weed kill ratio 70% or more, less than 90%) | d (soybean) effect on crop grade (soybean [31]): 0 (weed kill ratio 5% or less (practically no effect)) | H (black-grass) weedkilling efficacy grade (black-grass [32]): 5 (weed kill ratio 90% or more, (practically complete withering)) | c (corn) effect on crop grade (corn [33]): 0 (weed kill ratio 5% or less (practically no effect)) | P (birds-eye speedwell) weedkilling efficacy grade (birds-eye speedwell [34]): 5 (weed kill ratio 90% or more, (practically complete withering))
